Consider 40 molecules from ChEMBL document CHEMBL4219048, “Identification of cytotoxic, glutathione-reactive moieties inducing accumulation of reactive oxygen species via glutathione depletion” (Bioorg Med Chem, 2018).

The source made the active and inactive calls. No cut-off for these calls is given here.

For series [1], the system named is HeLa. The series is described as follows: Induction of ROS induced cytotoxicity in human HeLa cells at 2.5 uM incubated for 24 hrs in presence of BSO measured at 2 hrs interval by propidium iodide staining based real time live cell imaging analysis. It counts as functional.
The test system of series [2] is HeLa. In words: Induction of GSH depletion in human HeLa cells at 5 uM after 1 hr by Ellman's reagent based assay. It counts as functional.
Series [3] in a line: GSH reactivity in PBS buffer assessed as compound-GSH conjugate formation at 100 uM after 1 hr in presence of GSH by UHPLC/ESI-MS method. It counts as physicochemical.
Series [4] can be described thus: GSH reactivity in PBS buffer assessed as retention time for compound-GSH conjugate formation at 100 uM after 1 hr in presence of GSH by UHPLC/ESI-MS method. It counts as physicochemical.
Series [5] deals with HeLa. In words: Induction of ROS induced cytotoxicity in human HeLa cells at 5 uM administered after 1 hr pretreatment with NAC incubated for 24 hrs measured at 2 hrs interval by propidium iodide staining based real time live cell imaging analysis. Type of series: functional.
For series [6], the system named is HeLa. In words: Induction of GSH depletion in human HeLa cells at 10 uM after 1 hr by Ellman's reagent based assay. It counts as functional.
Series [7] relates to U2OS. The series is described as follows: Induction of ROS levels in human U2OS cells at 10 uM after 30 mins by CM-H2DCFDA/Hoechst-based fluorescence microscopic analysis relative to 10 uM CDNB. It counts as functional.
In series [8] the test system is HeLa. In words: Induction of GSH depletion in human HeLa cells at 0.1 to 100 uM after 1 hr by GSH/GSSG-glo assay relative to control. Type of series: functional, cell-based.
The subject of series [9] is U2OS. In words: Induction of GSH depletion in human U2OS cells assessed as GSH content at 10 uM by GSH/GSSG-Glo assay relative to DMSO. It counts as functional.
The test system of series [10] is HeLa. In words: Induction of ROS induced cytotoxicity in human HeLa cells assessed as reduction in cell viability at 5 uM incubated for 24 hrs measured at 2 hrs interval by propidium iodide-staining based real time live cell imaging analysis. Type of series: functional.
Series [11] relates to HeLa. The series is described as follows: Induction of ROS levels in human HeLa cells at 10 uM after 1 hr by CM-H2DCFDA/Hoechst-based fluorescence microscopic analysis relative to 10 uM CDNB. It counts as functional.
The subject of series [12] is HeLa. The series is described as follows: Induction of ROS induced cytotoxicity in human HeLa cells assessed as morphological changes at 10 uM incubated for 24 hrs measured after 2 hrs by propidium iodide-staining based real time live cell imaging analysis. Type of series: functional.
Series [13] relates to HeLa. The series is described as follows: Induction of ROS induced cytotoxicity in human HeLa cells assessed as reduction in cell viability at 2.5 to 20 uM incubated for 24 hrs measured at 2 hrs interval by propidium iodide-staining based live cell imaging analysis. Type of series: functional.
Series [14] deals with HeLa. The series is described as follows: Induction of GSH depletion in human HeLa cells at 20 uM after 1 hr by Ellman's reagent based assay. It counts as functional. A general note: In Ellman's method for cholinesterases, released thiocholine reacts with DTNB.
Series [15] relates to HeLa. In words: Induction of ROS induced cytotoxicity in human HeLa cells assessed as reduction in cell viability at 10 uM incubated for 24 hrs measured at 2 hrs interval by propidium iodide-staining based real time live cell imaging analysis. It counts as functional.
The subject of series [16] is HeLa. In words: Induction of ROS induced cytotoxicity in human HeLa cells at 10 uM administered after 1 hr pretreatment with NAC incubated for 24 hrs measured at 2 hrs interval by propidium iodide staining based real time live cell imaging analysis. Type of series: functional.
Series [17] concerns HeLa. The series is described as follows: Induction of ROS induced cytotoxicity in human HeLa cells at 5 uM incubated for 24 hrs in presence of BSO measured at 2 hrs interval by propidium iodide staining based real time live cell imaging analysis. It counts as functional.
In series [18] the test system is HeLa. In words: Induction of GSH depletion in human HeLa cells after 1 hr by GSH/GSSG-glo assay relative to control. It counts as functional, cell-based.

As for `CN(C(=O)Cn1ncc(Br)c(Br)c1=O)C1CCCc2ccccc21` (configuration not stated), the outcome in the series on HeLa [1], in the series on HeLa [8], in the series on HeLa [10] and in the series with HeLa [12] was Active. Further, the Activity with HeLa [2] is given as 23.1%; in series [3] it was “Active”; with HeLa [6] it was 38%; in the series on U2OS [7], 60%; with U2OS [9] it was 9.56%; in the series with HeLa [11] it was 63.96%. Besides, the Retention_time in series [4] was 3.41 min. In addition, the outcome in the series on HeLa [5] was inactive.

With `COc1ccc2nc(NC(=O)c3nc(S(C)(=O)=O)ncc3Cl)sc2c1`, the Activity was 107% in the series with U2OS [7] and 30.72% in the series on U2OS [9].

As to `O=C(Cn1ncc(Cl)c(Cl)c1=O)N(C1=CCCCC1)C1CC1`, the Activity in the series with U2OS [7] is on record as 70%; in the series with U2OS [9], 38.9%.

Consider `Cc1cccc(NC(=O)c2nc(Cl)c(Cl)c(Cl)c2Cl)c1C`, for which the outcome in the series with HeLa [8] was Active.

As to `O=C(Nc1ccccc1Br)c1c(Cl)nc(Cl)c(Cl)c1Cl`, the Activity was found to be 91% in the series with U2OS [7] and 36.07% with U2OS [9]. Moreover, the result in the series with HeLa [8] was Active.

Take `CC(=O)c1ccc(N2CCN(C(=O)Cn3ncc(Cl)c(Cl)c3=O)CC2)c(F)c1`: the Activity in the series on U2OS [7] was 113%; with U2OS [9] it was 30.95%. Moreover, the outcome in the series with HeLa [8] was Active.

Regarding `CCCS(=O)(=O)c1ncc(Cl)c(C(=O)Nc2nc3ccc(F)cc3s2)n1`, the Activity was 97% in the series with U2OS [7] and 11.22% with U2OS [9].

Regarding `O=c1c(Cl)c(Cl)cnn1Cc1nc2ccccc2n1C(F)F`, the Activity in the series with U2OS [7] amounted to 111%; in the series on U2OS [9], 31.86%.

`CCS(=O)(=O)c1ncc(Cl)c(C(=O)Nc2c(C(=O)Nc3ccccc3)oc3ccccc23)n1`: the Activity is 83% in the series on U2OS [7] and 39.62% in the series with U2OS [9].

Take `O=c1cc(Cn2ncc(Cl)c(Cl)c2=O)[nH]c(=O)[nH]1`: the outcome in the series on HeLa [13] and in the series on HeLa [6] was inactive. For the same molecule, the Activity entry in series [3] was “Active”; in the series with HeLa [14], 21.3%; with HeLa [11], 9.73%. In addition, in the series on HeLa [8], the result was Active.

Consider `CC(C)N(C(=O)Cn1ncc(Br)c(Br)c1=O)c1ccccc1`, for which the Activity in the series on U2OS [7] is given as 67%; in the series with U2OS [9], 20.43%. Besides, the outcome in the series on HeLa [8] was Active.

Take `CCOC(=O)C1CCN(C(=O)Cn2ncc(Cl)c(Cl)c2=O)CC1`: the Activity came out at 95% in the series with U2OS [7] and 35.47% with U2OS [9].

`O=c1c(Br)c(Br)cnn1CC(O)COc1cccc(Br)c1` (configuration not stated): the result in the series on HeLa [8] was Active.

In the case of `O=C1CC(c2cccc3ccccc23)CC1=O`, the figures for the Activity in the series with U2OS [7] and in the series on U2OS [9] were 110% and 24.43%, respectively.

With `CCS(=O)(=O)c1ncc(Cl)c(C(=O)Nc2ccc(-c3nc4ccc(C)cc4s3)cc2)n1`, the Activity with U2OS [7] was 127%; in the series on U2OS [9], 37.49%.

Turning to `O=C(Cn1ncc(Cl)c(Cl)c1=O)N1CCc2cc(S(=O)(=O)N3CCCCC3)ccc21`, the Activity in the series with U2OS [7] turned out to be 104%; in the series with U2OS [9], 35.26%.

Take `O=C(c1c(Cl)nc(Cl)c(Cl)c1Cl)N1CCOCC1`: the outcome in the series with HeLa [8] was Active.

On to `O=[N+]([O-])c1ccc(Cl)c([N+](=O)[O-])c1`, for which, in the series with HeLa [6], the outcome was Active.

Consider `Cc1cccc(CS(=O)(=O)c2ncc(Cl)c(C(=O)Nc3nc4ccc(C)cc4s3)n2)c1`, for which the Activity in the series with U2OS [7] stood at 106%; in the series with U2OS [9], 37.21%.

As for `O=C(Cn1ncc(Cl)c(Cl)c1=O)N1CCCC1c1ccc2c(c1)OCCO2` (configuration not stated), the Activity result in series [3] was “Active”; in the series on HeLa [11], 78.23%. The outcome in the series on HeLa [6], in the series with HeLa [15], in the series on HeLa [8] and in the series with HeLa [12] was Active.

On to `COc1ccc(OC)c(NC(=O)c2c(Cl)nc(Cl)c(Cl)c2Cl)c1`, for which the Activity result was “Active” in series [3]; 69% with U2OS [7]; 39.27% in the series on U2OS [9]; 73.78% in the series with HeLa [11]; “Dose-dependent effect” in the series on HeLa [18]. Also, the Retention_time in [4] was 3.48 min. The outcome in the series with HeLa [16], with HeLa [6] and with HeLa [8] was inactive. For the same molecule, the result in the series on HeLa [10], in the series on HeLa [17] and with HeLa [12] was Active.

Take `COc1cccc(CNC(=O)COC(=O)c2nc(Cl)c(Cl)c(Cl)c2Cl)c1`: the result with HeLa [13], in the series with HeLa [6] and with HeLa [8] was inactive. Moreover, the Activity result in series [3] is reported as “Active”; in the series with HeLa [11], 12.14%.

On to `O=c1c(Cl)c(Cl)cnn1-c1ccc(S(=O)(=O)NCc2cc(-c3ccccc3)no2)cc1`, for which the Activity in the series with U2OS [7] is reported as 129%; with U2OS [9], 24.31%.

Regarding `O=C(NCc1ccc(Cl)cc1)c1c(Cl)nc(Cl)c(Cl)c1Cl`, the Activity in the series on U2OS [7] is reported as 87%; in the series with U2OS [9], 30.39%. Moreover, the result with HeLa [8] was Active.

Take `CC(NC(=O)Cn1ncc(Cl)c(Cl)c1=O)c1ccc(F)cc1` (configuration not stated): the Activity with U2OS [7] is listed as 79%; in the series on U2OS [9], 22.59%.

Consider `Cc1nnc(NC(=O)c2nc(S(=O)(=O)Cc3ccccc3)ncc2Cl)s1`, for which the Activity worked out at 92% in the series on U2OS [7] and 34.32% in the series on U2OS [9].

In the case of `N#Cc1c(Cl)nc(N2CCOCC2)c(Cl)c1Cl`, the Activity in the series with U2OS [7] is recorded as 82%; with U2OS [9], 22.32%.

For the molecule `CC(=O)c1c(C)[nH]c(C(=O)Cn2ncc(Cl)c(Cl)c2=O)c1C`, the Activity is on record as 100% with U2OS [7] and 32.83% in the series on U2OS [9]. The outcome in the series with HeLa [8] was Active.

In the case of `COCCOc1ccc(CNC(=O)c2nc(Cl)c(Cl)c(Cl)c2Cl)cc1`, the result in the series with HeLa [8] was Active.

`COc1ccc2c(c1)CCCN2S(=O)(=O)c1ccc(-n2ncc(Cl)c(Cl)c2=O)cc1`: the Activity in the series with U2OS [7] is given as 52%; in the series with U2OS [9] it was 29.49%.

Regarding `COc1ccc(N(C)C(=O)c2nc(Cl)c(Cl)c(Cl)c2Cl)cc1OC`, the outcome in the series with HeLa [8] was Active.

Consider `CCCNC(=O)c1c(Cl)nc(Cl)c(Cl)c1Cl`, for which the outcome with HeLa [8] was Active.

As for `O=C(CN1CCCC1c1ccc2c(c1)OCCO2)Cn1ncc(Cl)c(Cl)c1=O` (configuration not stated), the values for the Activity with U2OS [7] and in the series with U2OS [9] were 163% and 19.2%, respectively.

As for `NC(=O)C1CCN(C(=O)c2nc(Cl)c(Cl)c(Cl)c2Cl)CC1`, the Activity entry in series [3] is “Active”; in the series with U2OS [7], 55%; in the series with U2OS [9], 24.15%; in the series on HeLa [11], 98.33%. For the same molecule, the outcome in the series on HeLa [6], with HeLa [15] and in the series with HeLa [8] was Active.

For the molecule `O=C(Cn1ncc(Br)c(Br)c1=O)C12CC3CC(CC(C3)C1)C2`, the Activity turned out to be 88% with U2OS [7] and 13.2% in the series with U2OS [9]. Also, the result with HeLa [8] was Active.

As to `CCN(CC)C(=O)c1cccc(NS(=O)(=O)c2ccc(-n3ncc(Cl)c(Cl)c3=O)cc2)c1`, the Activity in the series with U2OS [7] came to 98%; in the series on U2OS [9] it was 30.8%. In addition, the outcome with HeLa [8] was Active.

As for `CCCS(=O)(=O)c1ncc(Cl)c(C(=O)Nc2nc(C)c(C(=O)OCC(C)C)s2)n1`, the Activity with U2OS [7] was 130%; with U2OS [9], 23.2%.

Consider `Clc1ncnc2c1oc1ccccc12`, for which the values for the Activity with U2OS [7] and in the series on U2OS [9] were 116% and 25.49%, respectively.

For the molecule `O=C(Cn1ncc(Cl)c(Cl)c1=O)N(Cc1ccco1)CC(F)(F)F`, the Activity is 75% in the series with U2OS [7] and 35.84% in the series with U2OS [9].

`O=c1c(Br)c(Br)cnn1Cc1ccccc1`: the Activity was 77% in the series with U2OS [7] and 37.49% with U2OS [9]. In addition, the outcome in the series on HeLa [8] was Active.
